Results: patent US10934263B2, “Charged ion channel blockers and methods for use” (Nocion Therapeutics, Inc., priority 2019, dated 2021)

Tests used:
[1] = biological target: T1, NaV1.7 (Homo sapiens, UniProt Q15858); assay: Whole cell patch clamp, internal block of NaV1.7 current (compound in internal solution); type: cell-based; conditions: compound applied internally, manual patch clamp, read-out: Nav1.7 Intracellular Inhibition
T1 construct: expressed in transfected cells; tetracycline-inducible, kept under hygromycin and blasticidin
T1 sequence (Q15858 whole entry): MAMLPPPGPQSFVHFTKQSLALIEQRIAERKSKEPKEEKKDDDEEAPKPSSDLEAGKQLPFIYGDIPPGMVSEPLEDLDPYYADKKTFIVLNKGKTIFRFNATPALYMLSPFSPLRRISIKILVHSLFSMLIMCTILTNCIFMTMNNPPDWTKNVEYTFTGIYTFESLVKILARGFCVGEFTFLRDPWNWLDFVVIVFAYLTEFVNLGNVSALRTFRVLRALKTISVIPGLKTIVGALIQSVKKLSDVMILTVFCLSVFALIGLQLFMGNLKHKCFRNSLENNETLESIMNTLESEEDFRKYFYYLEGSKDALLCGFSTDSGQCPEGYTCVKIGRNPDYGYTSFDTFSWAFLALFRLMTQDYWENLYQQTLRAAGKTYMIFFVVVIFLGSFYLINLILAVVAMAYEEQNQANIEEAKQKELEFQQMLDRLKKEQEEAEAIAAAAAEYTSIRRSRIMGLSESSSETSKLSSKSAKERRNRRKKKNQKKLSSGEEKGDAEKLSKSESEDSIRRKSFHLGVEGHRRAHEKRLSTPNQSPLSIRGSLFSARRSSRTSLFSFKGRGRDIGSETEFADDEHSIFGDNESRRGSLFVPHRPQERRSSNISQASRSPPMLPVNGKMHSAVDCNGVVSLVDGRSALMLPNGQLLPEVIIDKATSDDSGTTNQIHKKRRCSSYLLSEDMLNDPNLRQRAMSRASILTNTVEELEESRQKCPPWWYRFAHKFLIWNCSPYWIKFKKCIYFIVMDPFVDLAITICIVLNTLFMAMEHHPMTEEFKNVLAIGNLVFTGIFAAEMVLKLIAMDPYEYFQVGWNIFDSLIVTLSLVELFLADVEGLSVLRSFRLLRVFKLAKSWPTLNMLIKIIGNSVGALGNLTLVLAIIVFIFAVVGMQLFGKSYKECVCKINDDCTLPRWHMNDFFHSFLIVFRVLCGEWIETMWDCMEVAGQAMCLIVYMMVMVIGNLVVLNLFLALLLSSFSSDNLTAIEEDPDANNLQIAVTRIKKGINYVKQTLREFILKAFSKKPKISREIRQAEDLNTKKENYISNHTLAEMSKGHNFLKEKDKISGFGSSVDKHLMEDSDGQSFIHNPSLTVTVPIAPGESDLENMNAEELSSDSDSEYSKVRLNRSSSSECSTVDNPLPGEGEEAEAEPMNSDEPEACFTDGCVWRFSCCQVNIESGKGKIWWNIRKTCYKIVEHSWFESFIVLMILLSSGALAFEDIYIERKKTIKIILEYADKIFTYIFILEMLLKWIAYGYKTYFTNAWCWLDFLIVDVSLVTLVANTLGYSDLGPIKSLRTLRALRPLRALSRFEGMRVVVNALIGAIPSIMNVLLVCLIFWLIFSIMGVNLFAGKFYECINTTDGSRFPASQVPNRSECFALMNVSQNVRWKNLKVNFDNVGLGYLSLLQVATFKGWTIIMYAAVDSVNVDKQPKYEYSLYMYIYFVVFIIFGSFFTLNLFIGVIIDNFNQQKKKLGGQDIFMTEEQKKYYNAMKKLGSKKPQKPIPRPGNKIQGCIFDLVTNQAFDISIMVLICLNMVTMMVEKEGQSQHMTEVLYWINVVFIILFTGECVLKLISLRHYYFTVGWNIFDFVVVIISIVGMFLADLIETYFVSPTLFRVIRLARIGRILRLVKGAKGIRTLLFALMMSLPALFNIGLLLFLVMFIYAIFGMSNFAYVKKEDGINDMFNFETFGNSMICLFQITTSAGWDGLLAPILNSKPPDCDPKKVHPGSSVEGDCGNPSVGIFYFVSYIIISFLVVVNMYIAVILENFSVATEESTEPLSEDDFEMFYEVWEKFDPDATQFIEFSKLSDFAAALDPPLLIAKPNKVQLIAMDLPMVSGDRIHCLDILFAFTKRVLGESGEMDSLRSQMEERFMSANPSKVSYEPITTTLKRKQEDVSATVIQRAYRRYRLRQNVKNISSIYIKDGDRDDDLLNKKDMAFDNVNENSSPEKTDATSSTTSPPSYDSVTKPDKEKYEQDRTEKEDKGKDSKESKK
Procedure, shortened: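 Tetracycline-induced NaV1.7 cells, whole-cell patch clamp at room temperature with compound in CsCl internal solution (pH 7.2), Ringer bath (pH 7.4). Held at −100 mV, steps to −20 mV; after baseline, four 30-s 5 Hz trains. Peak inward current at end of last train divided by baseline gives fraction remaining.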

[2] = biological target: T1, NaV1.7; assay: Whole cell patch clamp, external block of NaV1.7 current (compound in external solution); type: cell-based; conditions: compound applied externally, read-out: Nav1.7 Extracellular Inhibition; for inhibition at 30 µM: % inhibition at test concentration 30 μM
Experimental: Representative compounds of the invention were synthesized according to the described methods and tested for the ability to inhibit voltage-gated sodium channels.
NaV1.7 was expressed upon induction with tetracycline. Cells were cultured in DMEM containing 10% dialyzed Fetal Bovine Serum (VWR, Radnor, Pa.), 1% Glutamax (VWR, Radnor, Pa.), 1% Penicillin-Streptomycin (VWR, Radnor, Pa.), 100 mg/L Hygromycin (Thermo Fisher Scientific, Waltham, Mass. and 5 mg/L Blasticidin (Alfa Aesar, Haverhill, Mass.). Cells were grown and maintained at 37° C. in a humidified environment containing 10% CO2 in air. Cells were detached from the culture flask for passage and harvested using 0.05% Trypsin-EDTA (Thermo Fisher Scientific, Waltham, Mass.). To induce NaV1.7, cells were induced with tetracycline (0.1-1 μg/mL, IBI Scientific, Peosta, Iowa) the day before recording and plated onto 24-well plates. Cells were washed with DPBS (VWR, Radnor, Pa.), trypsinized and then triturated five times in 10 mL of growth media to break apart cell aggregates. For one 24-well plate, 2 mL of cell suspension was mixed with 23 mL of fresh growth media and 0.1-1 μg/mL tetracycline added. 1 ml of mixed media with cells was then added to each well of a 24-well plate, with a 12 mm coverslip already placed in the bottom of the well. Cells were then incubated in 37° C. and 10% CO2 overnight.
The intracellular solution contained the following (in mM) CsCl 135, NaCl 10, EGTA 10, HEPES 10, MgCl2 2, adjusted to pH 7.2 with CsOH. The external solution was a normal Ringer solution containing (in mM) NaCl 155, HEPES 10, glucose 10, KCl 3.5, CaCl2 1.5, MgCl2 1 adjusted to pH 7.4 with NaOH. CsCl is from Alfa Aesar, Haverhill, Mass. All other chemicals are from Sigma-Aldrich, St. Louis, Mo. In order to test the degree of internal block by test compounds the compounds were dissolved in internal solution at the indicated test concentration. […] In order to test the degree of external block by test compounds the compounds were dissolved in external solution at the indicated test concentration.
18-24 hours after cells were induced with tetracycline, coverslips were placed into a chamber filled with Normal Ringer solution at room temperature and the chamber placed on a microscope. Pipettes were pulled from borosilicate glass on a P97 puller (Sutter Instrument, Novato, Calif.) and polished with a MF-830 Microforge (Narishige International USA, Inc, Amityville, N.Y.) to have a resistance of 1.5-2.5 MΩ when filled with CsCl internal solution at room temperature. Healthy cells (those that are round and translucent with no visible blemishes) were chosen for seal formation. A seal was formed between the pipette and the cell, and a brief pulse of suction was used to “break in” and establish the whole-cell configuration. The membrane potential was held at −100 mV before the voltage protocol began. Only cells with series resistance between 1.5-5 MΩ were retained for analysis. The voltage protocol was as follows: Cells were held at −100 mV for 12 ms followed by a hyperpolarizing step to −105 mV for 12 ms to monitor the leak. Cells were then stepped back to −100 mV for 40 ms. Cells were then depolarized to −20 mV for 10 ms and then returned to −100 mV for 26 ms.
Once the recording was started, the voltage protocol was run at 30 second intervals for 5 minutes to get a stable baseline. This is followed by 5 Hz stimulation of the same voltage protocol run until the end of experiment. […] The test compound is added for 5 minutes before washing out with normal Ringer's solution. Currents were recorded using PatchMaster software with Heka EPC10 (HEKA Electronics, Lambrecht, Germany). Only cells with inward current amplitudes at −20 mV between 400 pA and 4 nA were accepted. In addition, cells having leak currents greater than 10% of their current amplitudes were discarded. […]

[3] = PAMPA membrane permeability assay; type: in vitro ADME; conditions: PAMPA permeability coefficient, GIT lipid, buffer pH 7.4, 4 hours incubation
Procedure, shortened: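 Passive permeability across GIT lipid-coated artificial membrane; compounds at 50 μM in pH 7.4 buffer in donor wells, incubated 4 h. Donor, acceptor and reference concentrations read by UV spectroscopy, permeability coefficient calculated from spectral AUCs.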

[4] = biological target: T1, NaV1.7; assay: Automated patch clamp (Qube 384), internal block of NaV1.7 in HEK293 cells; type: cell-based; conditions: compound in internal solution, read-out: Nav1.7 Intracellular Inhibition (IC50)
Procedure, shortened: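 Tetracycline-induced HEK293 cells, 22° C; CsF-based internal (pH 7.3), compound dissolved in internal solution, exchanged after baseline 5 Hz pulsing (−100 to −20 mV, 10 ms), then recorded 10 min. Remaining current averaged from last 3 points versus Step 2 baseline, rundown-corrected with non-drug cells; IC50 from Hill fit.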

[5] = biological target: T1, NaV1.7; assay: Automated patch clamp (Qube 384), external block of NaV1.7 in HEK293 cells; type: cell-based; conditions: compound in external solution, read-out: Nav1.7 Extracellular Inhibition (IC50)
Experimental: NaV1.7 was expressed in HEK293 cells upon induction with tetracycline. Cells were cultured in DMEM containing 10% dialyzed Fetal Bovine Serum (VWR, Radnor, Pa.), 1% Glutamax (VWR, Radnor, Pa.), 1% Penicillin-Streptomycin (VWR, Radnor, Pa.), 100 mg/L Hygromycin (Thermo Fisher Scientific, Waltham, Mass. and 5 mg/L Blasticidin (Alfa Aesar, Haverhill, Mass.). Cells were grown and maintained at 37° C. in a humidified environment containing 10% CO2 in air. Cells were detached from the culture flask for passage and harvested using 0.05% Trypsin-EDTA (Thermo Fisher Scientific, Waltham, Mass.). To induce NaV1.7, cells were induced with tetracycline (0.1-1 μg/mL, IBI Scientific, Peosta, Iowa) the day before recording.
Before experiments, cells were washed with DPBS (VWR, Radnor, Pa.), digested with Detachin (VWR Radnor, Pa.) and then triturated 10 times in CHO Serum-Free Media (VWR Radnor, Pa.) to resuspend the cells and to break apart cell aggregates. Cells were counted and the final concentration was set at 2-5 million cells per mL.
The intracellular solution contained the following: 140 mM CsF, 1 mM/5 mM EGTA/CsOH, 10 mM HEPES, 10 mM NaCl, adjusted to pH 7.3 with CsOH, and osmolality to 320 with sucrose. The external solution contained the following: 145 mM NaCl, 4 mM KCl, 1 mM MgCl2, 2 mM CaCl2, 10 mM HEPES, 10 mM Glucose, adjusted to pH 7.4 with CsOH and osmolality to 305 with sucrose. All chemicals are from Sigma-Aldrich, St. Louis, Mo. In order to test the degree of internal block by test compounds, the compounds were dissolved in internal solution at the indicated test concentration. […] In order to test the degree of external block by test compounds the compounds were dissolved in external solution at the indicated test concentration.
Automated Patch Clamps were performed on Qube 384 (Sophion Bioscience, Woburn Mass.) with multihole Qchips at a temperature setting of 22 degrees. The whole cells configuration was formed with default Qube seal and break-in parameter. The membrane potential was held at −100 mV before the voltage protocol began. Two voltage protocols were followed.
Step 1: Cells were held at −100 mV with a depolarized pulse to −20 mV for 10 ms, the interval was set at 5 s. Currents were corrected by default leak subtraction from every pulse. The duration was set at 5 mins.
Step 2: Cells were held at −100 mV with a depolarized pulse to −20 mV for 10 ms. The frequency was 5 Hz. Currents were corrected by leak subtraction calculated before step 2. The duration was set at 4 mins.
After Step 2, the external solution was changed with solutions containing test compounds. Qchips were held at −100 mV without pulsing. The total solution switching time was 8 minutes. After the external solution exchange, cells were recorded using the same procedure as step 2 for 10 minutes.
Data analysis was performed by Sophion Analyzer. Data were corrected with control cells (Non-Drug). The IC50 data were plotted with DR-plots/Hill function (a dose-response plot with a Hill fit).

inhibition at 10 µM [1]	inhibition at 30 µM [2]	PAMPA (10^−6 cm/s) [3]	inhibition at 32 µM [1]	inhibition at 100 µM ([2]; % inhibition at test concentration 100 μM)	inhibition at 1000 µM ([2]; % inhibition at test concentration 1,000 μM)	IC50 [4]	IC50 [5]	Structure (SMILES)
70 to 95%	40 to 70%	+ (<0.1 10^−6 cm/s)						CCOC(=O)c1ccc[n+](CC(=O)Nc2c(C)cccc2C)c1.[Br-] [Compound 25A]
> 95%	< 40%	+ (<0.1 10^−6 cm/s)	> 95%					Cc1cccc(C)c1NC(=O)C[n+]1cccc(-c2ccccc2)c1.[Br-] [Compound 12A, 1-(2-((2,6-dimethylphenyl)amino)-2-oxoethyl)-3-phenylpyridin-1-ium bromide]
	< 40%	+ (<0.1 10^−6 cm/s)	70 to 95%					CCc1cccc[n+]1CC(=O)Nc1c(C)cccc1C.[Br-] [Compound 13A]
70 to 95%	< 40%	+ (<0.1 10^−6 cm/s)	70 to 95%					CCc1ccc[n+](CC(=O)Nc2c(C)cccc2C)c1.[Br-] [Compound 17A]
> 95%		++ (0.1-2.0 10^−6 cm/s)	> 95%	< 40%				Cc1cccc(C)c1NC(=O)C[n+]1ccccc1-c1ccccc1.[Br-] [Compound 16A]
		++ (0.1-2.0 10^−6 cm/s)	> 95%		40 to 70%			Cc1cccc(C)c1NC(=O)C[n+]1c(C)cccc1C.[Br-] [Compound 6A, 1-(2-((2,6-dimethylphenyl)amino)-2-oxoethyl)-2,6-dimethylpyridin-1-ium bromide]
		+ (<0.1 10^−6 cm/s)				3 to 10 µM	> 100 µM	CCOC(=O)Cn1ccc(C)[n+]1CC(=O)Nc1c(C)cccc1C [Compound 85]
		+ (<0.1 10^−6 cm/s)				10 to 30 µM	> 100 µM	Cc1cccc(C)c1NC(=O)C[n+]1cccn1CCC#N [Compound 70]
